From patent US11083717B2, “Compositions and methods for drug sensitization of parasites” (The Texas A&M University System, priority 2015, dated 2021)
Read-outs that look alike come from different tables or passages of the source.

Assays:
[1] = system: S. cerevisiae; experiment: in vitro; conditions: Saccharomyces cerevisiae
Description: (§1) These tests included an IL-12 mouse model test to determine compound efficacy, verification of MIC50 for CP, cytotoxicity test for fibroblasts and yeast to determine potential toxic effects, a Human ether-a-go-go-related gene (hERG) test to determine potential cardiotoxicity, an AMES test tp determine mutagenic potential, a Safety Screen 44 test to determine common negative off-target drug interastion (Eurofins Cerep, SA, France), a cytochrome P450 (CYP) test to determine potential liver toxicity, a maximum tolerated dose, test, a Pharmacokinetics (PK) test to determine fate of the substance administered to a living organism tests for plasma stability in human and mouse, to measure the degradation of compound in plasma MClint and HClint test to determine in vitro intrinsic clearance for Mouse and Human, and kinetic solubility and plasma protein binding tests in mouse and human.

[2] = system: human fibroblast; experiment: in vitro
Description: as §1

Row | Compound | concentrations at which not toxic, S. cerevisiae cytotoxicity testing [1] [µM] | concentrations at which not toxic, human fibroblast cytotoxicity testing ([2]; human) [µM] | concentrations at which not toxic, human fibroblast cytotoxicity testing [2] [µM]
1 | CC(C)NC(=O)Nc1ccc(Oc2nc3ccc(O)cc3s2)cc1 [NZ-362, 1-{4-[(6-hydroxy-1,3-benzothiazol-2-yl)oxy]phenyl}-3-(propan-2-yl)urea] | ≥ 100 | ≥ 100 | 
2 | CNC(=O)Cc1ccc(Oc2nc3ccc(Cl)cc3s2)cc1OC [NZ-392, 2-{4-[(6-chloro-1,3-benzothiazol-2-yl)oxy]-2-methoxyphenyl}-N-methylacetamide] | ≥ 100 |  | ≥ 100
3 | CC(C)NC(=O)Nc1ccc(Oc2nc3ccc(C(F)(F)F)cc3s2)cc1 [NZ-379, 3-(propan-2-yl)-1-(4-{[6-(trifluoromethyl)-1,3-benzothiazol-2-yl]oxy}phenyl)urea] | ≥ 100 | ≥ 100 | 
4 | O=C(Nc1ccc(Oc2nc3ccc(Cl)cc3s2)cc1)N1CCNCC1 [NZ-509, N-{4-[(6-chloro-1,3-benzothiazol-2-yl)oxy]phenyl}piperazine-1-carboxamide] | ≥ 100 | ≥ 100 | 
5 | CONC(=O)C(C)c1ccc(Oc2nc3ccc(OC)cc3s2)cc1 (centres unmarked) [NZ-335, N-methoxy-2-{4-[(6-methoxy-1,3-benzothiazol-2-yl)oxy]phenyl}propanamide] | ≥ 100 | ≥ 100 | 
6 | COC(=O)Cn1ccc(Oc2nc3ccc(Cl)cc3s2)cc1=O [NZ-396, methyl 2-{4-[(6-chloro-1,3-benzothiazol-2-yl)oxy]-2-oxo-1,2-dihydropyridin-1-yl}acetate] | ≥ 100 | ≥ 100 | 
7 | CC(C)NC(=O)Nc1ccc(Oc2nc3cc(F)ccc3s2)cc1 [NZ-373, 1-{4-[(5-fluoro-1,3-benzothiazol-2-yl)oxy]phenyl}-3-(propan-2-yl)urea] | ≥ 100 |  | ≥ 100
8 | CC(C(=O)N1CCN(C2CC2)CC1)c1ccc(Oc2nc3ccc(Cl)cc3s2)cc1 (centres unmarked) [NZ-511, 2-{4-[(6-chloro-1,3-benzothiazol-2-yl)oxy]phenyl}-1-(4-cyclopropylpiperazin-1-yl)propan-1-one] | ≥ 100 | ≥ 100 | 
9 | CC(C)NC(=O)Nc1ccc(Oc2nc3cc(Cl)c(Cl)cc3s2)cc1 [NZ-393, 1-{4-[(5,6-dichloro-1,3-benzothiazol-2-yl)oxy]phenyl}-3-(propan-2-yl)urea] | ≥ 100 |  | ≥ 100
10 | CC(C(=O)O)c1ccc(Oc2nc3ccc(Cl)cc3s2)cc1 (centres unmarked) [NZ-312, 2-{4-[(6-chloro-1,3-benzothiazol-2-yl)oxy]phenyl}propanoic acid] | ≥ 100 | ≥ 100 | 
11 | O=C(O)COc1ccc(Oc2nc3ccc(F)cc3s2)cc1 [NZ-304, 2-{4-[(6-fluoro-1,3-benzothiazol-2-yl)oxy]phenoxy}acetic acid] | ≥ 100 | ≥ 100 | 
12 | CNC(=O)Cn1ccc(Oc2nc3ccc(F)cc3s2)cc1=O [NZ-419, 2-{4-[(6-fluoro-1,3-benzothiazol-2-yl)oxy]-2-oxo-1,2-dihydropyridin-1-yl}-N-methylacetamide] | ≥ 100 | ≥ 100 | 
13 | COC(=O)C(C)(C)Oc1ccc(Oc2cnc3cc(Cl)ccc3n2)cc1 [NZ-314, methyl 2-{4-[(6-chloroquinoxalin-2-yl)oxy]phenoxy}-2-methylpropanoate] | ≥ 100 | ≥ 100 | 
14 | CONC(=O)C(C)(C)Oc1ccc(Oc2cnc3cc(Cl)ccc3n2)cc1 [NZ-316, 2-{4-[(6-chloroquinoxalin-2-yl)oxy]phenoxy}-N-methoxy-2-methylpropanamide] | ≥ 100 | ≥ 100 | 
15 | O=C(COc1ccc(Oc2cnc3cc(Cl)ccc3n2)cc1)NOCC1CC1 [NZ-323, 2-{4-[(6-chloroquinoxalin-2-yl)oxy]phenoxy}-N-(cyclopropylmethoxy)acetamide] | ≥ 100 |  | ≥ 100
16 | CCOC(=O)c1ccc2nc(Oc3ccc(NC(=O)NC(C)C)cc3)sc2c1 [NZ-378, ethyl 2-(4-{[(propan-2-yl)carbamoyl]amino}phenoxy)-1,3-benzothiazole-6-carboxylate] | ≥ 100 | ≥ 100 | 
17 | CC(C)(Oc1ccc(Oc2nc3ccc(Cl)cc3s2)cc1)C(=O)O [NZ-318, 2-{4-[(6-chloro-1,3-benzothiazol-2-yl)oxy]phenoxy}-2-methylpropanoic acid] | ≥ 100 |  | ≥ 100
18 | CNC(=O)Cc1ccc(Oc2cnc3cc(Cl)ccc3n2)cc1O [NZ-402, 2-{4-[(6-chloroquinoxalin-2-yl)oxy]-2-hydroxyphenyl}-N-methylacetamide] | ≥ 100 |  | ≥ 100
19 | CONC(=O)Cc1ccc(Oc2cnc3cc(Cl)ccc3n2)cc1 [NZ-301, 2-{4-[(6-chloroquinoxalin-2-yl)oxy]phenyl}-N-methoxyacetamide] | ≥ 100 |  | ≥ 100
20 | CC(C(=O)N1CCN(C(C)C)CC1)c1ccc(Oc2nc3ccc(Cl)cc3s2)cc1 (centres unmarked) [NZ-510, 2-{4-[(6-chloro-1,3-benzothiazol-2-yl)oxy]phenyl}-1-[4-(propan-2-yl]piperazin-1-yl]propan-1-one] | ≥ 100 | ≥ 100 | 
21 | CC(C)NC(=O)Nc1ccc(Oc2nc3cc(F)c(F)cc3s2)cc1 [NZ-382, 1-{4-[(5,6-difluoro-1,3-benzothiazol-2-yl)oxy]phenyl}-3-(propan-2-yl)urea] | 50 to 100 | ≥ 100 | 
22 | CONC(=O)C(C)c1ccc(Oc2nc3ccc(F)cc3s2)cc1 (centres unmarked) [NZ-330, 2-{4-[(6-fluoro-1,3-benzothiazol-2-yl)oxy]phenyl}-N-methoxypropanamide] | ≥ 100 | ≥ 100 | 
23 | CC(C)NC(=O)COc1ccc(Oc2cnc3cc(Cl)ccc3n2)cc1 [NZ-307, 2-{4-[(6-chloroquinoxalin-2-yl)oxy]phenoxy}-N-(propan-2-yl)acetamide] | ≥ 100 |  | ≥ 100
24 | CC(C)(C)OC(=O)NCC(=O)Nc1ccc(Oc2nc3ccc(F)cc3s2)cc1 [NZ-415, tert-butyl N-[({4-[(6-fluoro-1,3-benzothiazol-2-yl)oxy]phenyl}carbamoyl)methyl]carbamate] | ≥ 100 | ≥ 100 | 
25 | O=C(O)C(O)c1ccc(Oc2nc3ccc(Cl)cc3s2)cc1 (centres unmarked) [NZ-337, 2-{4-[(6-chloro-1,3-benzothiazol-2-yl)oxy]phenyl}-2-hydroxyacetic acid] | ≥ 100 | ≥ 100 | 
26 | CNC(=O)C(C)c1ccc(Oc2nc3ccc(F)cc3s2)cc1O (centres unmarked) [NZ-408, 2-{4-[(6-fluoro-1,3-benzothiazol-2-yl)oxy]-2-hydroxyphenyl}-N-methylpropanamide] | ≥ 100 | ≥ 100 | 
27 | COc1ccc2nc(Oc3ccc(NC(=O)NC(C)C)cc3)sc2c1 [NZ-361, 1-{4-[(6-methoxy-1,3-benzathiazol-2-yl)oxy]phenyl}-3-(propan-2-yl)urea] | ≥ 100 | ≥ 100 | 
28 | COC(=O)Cc1ccc(Oc2nc3ccc(F)cc3s2)cc1 [NZ-294, methyl 2-{4-[(6-fluoro-1,3-benzothiazol-2-yl)oxy]phenyl}acetate] | ≥ 100 | ≥ 100 | 
